Measured values reported in patent US20230381205A1, “COMPOSITIONS AND METHODS FOR TREATING NEURONAL DISORDERS WITH CANNABINOIDS” (INMED PHARMACEUTICALS INC., priority 2020, published 2023).

How the values were obtained:
[1] = tested on: differentiated SH-SY5Y human neuronal cells; assay: MTT assay: cytotoxicity of the substance alone (primary screen, no added insult); format: cell-based; settings: for toxicity in primary screen / Cell Death (%) vs Vehicle Control: FIG. 1; for Cell Death (%) vs Vehicle Control: 15 μM, pre-screen
Procedure: (§1) Cell Culture and Differentiation: The SH-SY5Y human neuronal cell line was derived from neuroblastoma established from a metastatic bone tumor (patient with neuroblastoma). The cells were maintained in DMEM:F12 culture medium supplemented with 10% FBS and 1% Antibiotic-Antimycotic penicillin/streptomycin (growth medium) at 37° C. in a humidified atmosphere of 5% CO2. To induce neuronal differentiation of SH-SY5Y cells, culture media was replaced by a growth medium containing Retinoic Acid (RA) for 4-5 days at 37° C. in a humidified atmosphere of 5% CO2.
(§2) Compounds and Dosing Formulations: Selected cannabinoids: CBD, CBDA, CBC, CBG, CBGA, CBN, CBND and Δ^9-THC were procured from Cayman Chemicals and TRC. Ethanol (100%) was used as the solvent to prepare 1 and 10 mM stock solutions. Treatment concentrations for CBGA were prepared at 0.5 μM, 1.5 μM, 5 μM, 10 μM, 15 μM, 20 μM. Treatment concentrations for CBD, CBDA, CBC, CBN, CBND and Δ^9-THC were prepared at 0.5, 1.5, 5 and for CBG at 0.5 μM, 1.5 μM, 5 μM, 10 μM, 15 μM. Treatments were prepared directly in the control medium (DMEM:F12+5% FBS+1% Antibiotic-Antimycotic) by using appropriate stock solutions.
(§3) Evaluation of Cytotoxicity and Neuroprotection: Evaluation of cannabinoids neuroprotection and cytotoxicity on differentiated SH-SY5Y human neuronal cells was carried out by MTT (3-(4,5-dimethylthiazol-2-yl)-2,5-diphenyltetrazolium bromide) assay. Initially, cannabinoid cytotoxicity and neuroprotection were evaluated in a primary screen assay without the presence of cytotoxicity inducing insult agents. […] The Retinoic Acid (RA) differentiated SH-SY5Y neuronal cells were seeded onto 96-well plates (10,000 cells/well) in DMEM:F12 complete medium. Cells were differentiated for 4-5 days in the presence of RA.
(§4) MTT Assay: For the MTT assay, differentiated SH-SY5Y neuronal cells were treated with cannabinoids at various concentrations for 72 hrs in the presence of STSR at 75 nM, 100 nM, 150 nM and 200 nM or for 24 hrs in the presence of […] at 5 μM, respectively and processed to determine cytotoxicity. Briefly, 5 mg/mL of methylthiazolyldiphenyl-tetrazolium bromide (Sigma-Aldrich) stock solution was prepared in PBS. Following treatment of SH-SY5Y neuronal cells with cannabinoids for 72 hrs, the cells were incubated with 20 μL of MTT stock solution in 200 μL DMEM for 2 hrs at 37° C. Following subsequent washes with PBS, 200 μL of isopropanol was added to each well. The resulting change in color from dissolving formazan salt was immediately quantified using a spectrophotometer (BMG Labtech) at a wavelength of 570 nm. […] The results are illustrated in FIGS. 1-7.

[2] = tested on: differentiated SH-SY5Y human neuronal cells; assay: MTT assay: neuroprotection from Staurosporin (STSR) induced cytotoxicity; format: cell-based; settings: for neuroprotection against STSR-induced cytotoxicity: 0.5 μM, 1.5 μM and 5 μM with STSR 75 nM, 72 hrs; for neuroprotection against STSR-induced cytotoxicity / Cell Death (%) vs STSR at 75 nM, significance: FIG. 3; for Cell Death (%) vs STSR at 75 nM, significance: 5 μM with STSR 75 nM, compared to STSR-alone, One-Way ANOVA
Procedure: as §1, §2, §3, §4

[3] = tested on: differentiated SH-SY5Y human neuronal cells; assay: MTT assay: neuroprotection from Aβ1-42 induced cytotoxicity; format: cell-based
Procedure: as §1, §2, §3, §4

[4] = tested on: differentiated SH-SY5Y cells; assay: Immunocytochemistry of TuJ1 and neuronal morphology; format: cell-based, human; settings: 5 μM, FIG. 14
Procedure: (§5) FIG. 14 Morphological characterization of CBGA, THC and CBN mediated changes in differentiated SH-SY5Y cells. SH-SY5Y cells were differentiated with RA (10 μM) for 5 days as indicated. (A) Representative confocal photomicrographs showing changes in the cellular distribution of Tuj1 in RA induced differentiated SH-SY5Y cells following treatment with CBGA, THC and CBN. (B) Histogram showing the effect of CBGA, CBN, THC on neurite length.

CB1R = assay: Changes in CB1 receptor expression and translocation; format: cell-based; settings: CBGA 5 μM, 10 μM, dose-dependent; FIG. 11
Source text: FIG. 11 Changes in receptor expression.

[5] = tested on: differentiated SH-SY5Y cells; assay: Neurite length / neuritogenesis in differentiated SH-SY5Y cells; format: cell-based, human; settings: 24 hours post treatment, FIG. 14 (B)
Procedure: FIG. 12 provides representative photomicrographs illustrating CBGA mediated changes in neurite elongation and branching in differentiated SH-SY5Y cells in a dose dependent manner. […] FIG. 12 also provides a histogram showing gradual changes in neurite length following treatment with CBGA.
as §5

[6] = tested on: differentiated SH SY5Y cells treated with Aβ1-42; assay: Receptor antagonist study: reversal of CBGA mediated protection from Aβ toxicity; format: cell-based, human; settings: CB2 antagonist at 1.5 μM (lowest concentration tested), with CBGA + Aβ1-42, FIG. 8
Procedure: FIG. 8 illustrates the effect of a CB2 antagonist has on the reversal of CBGA mediated protection of Aβ toxicity. The CB2 antagonist […] has a more prominent effect on the reversal of CBGA mediated protection. […] CB2 antagonist has significant effect on the reversal of CBGA mediated protection at lower concentration. p<0.0001 for Aβ compared to vehicle control. p<0.0001 for all groups compared to CBGA ([…])+Aβ.

BAX = assay: Western blot of BAX (pro-apoptotic marker); format: cell-based, human; settings: Aβ1-42 (5 μM) alone, FIG. 9
Procedure: (§6) For Western blot analysis, control and the treated cells were harvested and lysed in cold lysis buffer (150 mM NaCl, 50 mM Tris-HCl, 1% Triton X-100, 0.1% SDS, 0.5% Sodium deoxycholate, and 1% protease-phosphatase inhibitor mixture). The supernatants were collected and protein concentrations were determined using Bio-Rad protein assay (Bio-Rad Laboratories). Whole cell lysates (10 μg) were subjected to 10% SDS-polyacrylamide electrophoresis and transferred to nitrocellulose membrane. The membranes were blocked with 5% skim milk in TBS-T (Tris-buffered saline with 0.05% Tween-20) for 1 h at RT and blotted overnight in the presence of monoclonal anti-mouse MAP2 (1:1000, Sigma, cat. no. M1406), Tau (1:1000, Invitrogen, cat. no. AHB0042), TUJI (1:5000, BioLegend, cat. no. MMS-435P), BAX (1:1000, Cell signaling, cat. no. 2772) and rabbit polyclonal total and phosphorylated BCL (1:1000, Cell signaling, antibodies #2827 and 2870). The membranes were washed and incubated for 1 h in RT with either horseradish peroxidase (HRP)-conjugated goat anti-mouse (1:2000) or goat anti-rabbit antibodies (1:2000) (Jackson Lab). The membranes were washed and developed using chemiluminescence detection kit (Millipore, Billerica, MA, USA) on Alpha Innotech FluorChem 8800. β-Actin or Vinculin was used as a loading control. […]

[7] = tested on: differentiated SH-SY5Y cells; assay: Confocal immunofluorescence of MAP2 and neurite morphology; format: cell-based, human; settings: Aβ1-42 at 5 μM alone, FIG. 16
Procedure: SH-SY5Y cells were differentiated with RA (10 μM) for 5 days as indicated.
Accordingly, the effect of CBGA on the expression of MAP-2 was tested.

BCL2 = assay: Western blot of phosphorylated BCL2 (anti-apoptotic marker); format: cell-based, human; settings: Aβ1-42 insult alone, FIG. 10
Procedure: as §6

Molecule	toxicity in primary screen ([1]; 5 μM to 15 μM)	Cell Death (%) vs Vehicle Control [1]	toxicity in primary screen ([1]; about 0.5 μM to 1.5 μM)	neuroprotection against STSR-induced cytotoxicity [2]	Cell Death (%) vs STSR at 75 nM, significance [2]	further results
CCCCCc1cc(O)c2c(c1)OC(C)(CCC=C(C)C)C=C2 (stereo not drawn) [CBC, cannabichromene]	high levels of toxicity	promote cell death	high levels of toxicity	–	–	–
C=C(C)[C@@H]1CCC(C)=C[C@H]1c1c(O)cc(CCCCC)cc1O [CBD, cannabidiol]	high levels of toxicity	promote cell death	high levels of toxicity	did not protect	statistically significant cytotoxicity	–
C=C(C)[C@@H]1CCC(C)=C[C@H]1c1c(O)cc(CCCCC)c(C(=O)O)c1O [CBDA, cannabidiolic acid]	high levels of toxicity	promote cell death	high levels of toxicity	–	–	–
CCCCCc1cc(O)c(C/C=C(\C)CCC=C(C)C)c(O)c1 [CBG, cannabigerol]	high levels of toxicity	promote cell death	–	–	–	protection from STSR induced cytotoxicity ([2]; 5 μM, 10 μM and 15 μM with STSR 75 nM, FIG. 6): did not protect; Cell Death (%) vs STSR, significance ([2]; 15 μM with STSR 75 nM, p=0.0002, FIG. 6): statistically significant cytotoxicity; protection from Aβ1-42 induced insult ([3]; 1.5 μM, 5 μM and 10 μM with Aβ1-42 5 μM, FIG. 7): did not protect; cytotoxicity with Aβ1-42 ([3]; 10 μM with Aβ1-42 5 μM, p<0.0001, FIG. 7): significant cytotoxicity
CCCCCc1cc(O)c2c(c1)OC(C)(C)c1ccc(C)cc1-2 [CBN, cannabinol]	high levels of toxicity	promote cell death	–	did not protect	statistically significant cytotoxicity	neuronal morphology and neurite outgrowth, TuJ1 staining [4]: loss of neurite outgrowth and elongation; CB1R expression and translocation (CB1R): did not alter the expression of CB1R; neurite length [5]: significantly decreased the neurite length
C=C(C)c1ccc(C)cc1-c1c(O)cc(CCCCC)cc1O [CBND]	high levels of toxicity	promote cell death	–	did not protect	statistically significant cytotoxicity	–
Cc1ccc(Cn2nc(C(=O)N[C@@H]3C(C)(C)[C@@H]4CC[C@@]3(C)C4)cc2-c2ccc(Cl)c(C)c2)cc1 [SRI 14528, 5-(4-chloro-3-methylphenyl)-1-[(4-methylphenyl)methyl]-N-[(1S,2S,4R)-1,3,3-trimethylbicyclo[2.2.1]heptan-2-yl]-1H-pyrazole-3-carboxamide]	–	–	–	–	–	reversal of CBGA mediated neuroprotection [6]: completely reversed
CN[C@@H]1C[C@H]2O[C@@](C)([C@@H]1OC)n1c3ccccc3c3c4c(c5c6ccccc6n2c5c31)C(=O)NC4 [STSR, Staurosporin]	–	–	–	–	–	cell death ([1]; STSR 75 nM, 72 hrs, vs vehicle control, FIG. 2): ~34%; cell death ([1]; STSR 200 nM, 72 hrs, vs vehicle control, FIG. 2): ~66%; cell death ([1]; STSR-insult alone at 75 nM, FIG. 5): ~48%
CCCCCc1cc(O)c2c(c1)OC(C)(C)[C@@H]1CCC(C)=C[C@@H]21 [Δ9-THC, Δ^9-tetrahydrocannabinol]	high levels of toxicity	promote cell death	high levels of toxicity	–	–	neuronal morphology and neurite outgrowth, TuJ1 staining [4]: disrupted neuronal morphology and neurite outgrowth; CB1R expression and translocation (CB1R): did not alter the expression of CB1R; neurite length [5]: significantly decreased the neurite length
Aβ1-42: Amyloid-beta (Aβ1-42) peptide, insult-inducing cytotoxic agent	–	–	–	–	–	cytotoxicity ([1]; Aβ1-42 insult alone at 5 μM, 24 hrs, FIG. 7): 23-52%; BAX expression (BAX): induced upregulation; neurite morphology [7]: damaged neurite outgrowth; BCL2 expression (BCL2): downregulation
